Where a SMILES comes first, the peptide text is derived from it. [ ]: non-standard residue; d: D form. Tle = CC(C)(C)[C@H](N)C(=O)O; Aib = CC(C)(N)C(=O)O
Legend:
[1] = in vitro; conditions: human, tissue homogenate, % of the starting concentration
Description: (§4) Human skin samples (ear skin, umbilical skin and juvenile foreskin) are combined and frozen in liquid nitrogen and homogenized. The resulting human skin homogenate is transferred portionwise (50-70 mg) to Protein LoBind Tubes (2 ml) and stored at −32° C. until use. At the beginning of the stability study the human skin homogenate is thawed. An aqueous solution of the tripeptide compound (1500 μl) with or without 0.02% sodium azide (cpeptide=160 μg/ml) is added and the mixture is incubated at 32° C. Samples were taken at 0, 30, 100, 300 and 1000 minutes. 100 μl sample are diluted with 1900 μl methanol containing an internal standard and analyzed with HPLC-MS. All analyses are performed in triplicate.

[2] = tested on: primary murine T-cells; assay: Cytokine secretion on protein level in activated primary murine T-cells (13-plex FACS / Luminex, supernatant); type: cell-based, C57BL/6 mice; conditions: murine T cells; PMA/Ionomycin; Luminex; all tested concentrations
Method in brief: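 T-cells from secondary lymphatic organs of naïve C57BL/6 mice, stimulated with PMA/Ionomycin or IFN-γ; supernatant cytokines measured by 13-plex FACS 48 h and 72 h after stimulation. In another run, PMA/Ionomycin-stimulated cells received compounds at 10^−7, 10^−9 and 10^−11 M, with IFN-γ, IL-17 and IL-10 measured by Luminex.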

[3] = tested on: primary human T cells; assay: Gene expression of pro-inflammatory cytokines (RT-qPCR) in primary human T cells; type: cell-based; conditions: PMA/Ionomycin, 10^−7 M, 10^−9 M and 10^−11 M
From the text: (§1) Cells were activated with PMA/Ionomycin and treated with PBS, α-MSH, K(D)PT and Examples 3, 8 and 9, respectively, at a concentration of 10^−9 M. Values are normalized to β-actin and are shown relative to the gene expression in PBS-stimulated cells.
(§2) Primary T-cells were isolated from peripheral blood from healthy volunteers and from secondary lymphatic organs from naïve C57BL/6 mice, respectively. The cells were stimulated with phorbol-12-myristate-13-acetate (PMA)/Ionomycin and interferon-gamma (IFN-γ), respectively, for 48 h to activate the cells. The activated cells release pro-inflammatory cytokines. In parallel a human (HaCaT) keratinocyte cell line was activated with PMA/Ionomycin and IFN-γ, respectively, too. […] At the same time release of anti-inflammatory IL-10 was inhibited. Two days after addition of PMA/Ionomycin and IFN-γ, respectively, the induction of IL-1 secretion was determined in the supernatant for proving that the cells are activated. […] The anti-inflammatory properties of the tripeptides were determined 48 h and 72 h following stimulation. A 13-plex-system based FACS analysis was used for showing the reduced secretion of pro-inflammatory cytokines in the supernatant. Data for IL-1, IL-2, IL-6, IL-12p70 IL-17, IFN-γ and TNF-α are considered to be most relevant. Thus, analysis of the anti-inflammatory properties of the tripeptides is preferably based on the results obtained for these analytes. […] Using this method the gene expression of pro-inflammatory markers like IL-6, IL-17, IFN-γ and TNF-α was determined.
(§3) In a third experiment murine and human T cells and HaCaT cells were stimulated with PMA/Ionomycin and treated with Examples 14, 15, 16 and 17 at 10^−7 M, 10^−9 M and 10^−11 M. Cytokine concentrations (IFN-γ, IL-17 and IL-10 for T cells and IFN-γ for HaCat) were assessed in the supernatants using the Luminex technology. Expression of genes coding for Il-1β, IL-6 and TNF-α was determined. […] Moreover, concentrations of pro-inflammatory cytokines IFN-γ and IL-17 was reduced in the supernatants whereas the concentration of anti-inflammatory cytokine IL-10 was increased.

[4] = tested on: human keratinocyte cell line (HaCaT); assay: Cytokine secretion on protein level in activated human keratinocyte cell line HaCaT (13-plex FACS / Luminex, supernatant); type: cell-based; conditions: HaCaT; PMA/Ionomycin; Luminex; all tested concentrations
Method in brief: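 Stimulus: PMA/Ionomycin or IFN-γ, 48 h; cells: HaCaT or human peripheral-blood T-cells; tripeptide treatment; readout: supernatant cytokines via 13-plex FACS or Luminex, 48–72 h post-stimulation.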

[5] = tested on: human keratinocytes (HaCaT); assay: Gene expression of pro-inflammatory cytokines (RT-qPCR) in human keratinocytes (HaCaT); type: cell-based; conditions: HaCaT cells; PMA/Ionomycin; 10^−7 M, 10^−9 M and 10^−11 M
From the text: as §1, §2, §3

[6] = tested on: primary murine T cells; assay: Gene expression of pro-inflammatory cytokines (RT-qPCR) in primary murine T cells; type: cell-based, C57BL/6 mice; conditions: PMA/Ionomycin, 10^−7 M, 10^−9 M and 10^−11 M
From the text: as §1, §2, §3

[7] = tested on: primary human T-cells; assay: Cytokine secretion on protein level in activated primary human T-cells (13-plex FACS / Luminex, supernatant); type: cell-based; conditions: human T cells; PMA/Ionomycin; Luminex; all tested concentrations
Method in brief: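 Primary T-cells from peripheral blood of healthy volunteers, or HaCaT cells, were activated with PMA/Ionomycin or IFN-γ for 48 h and treated with tripeptides. Supernatants were collected 48 h and 72 h after stimulation and cytokines (IL-1, IL-2, IL-6, IL-12p70, IL-17, IFN-γ, TNF-α) were measured by 13-plex FACS.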

[8] = tested on: Balb/c mice; assay: Imiquimod-induced psoriasis in mice; type: in vivo; conditions: i.v.; for mRNA expression of IFN-γ and IL-36 in lesional skin: compared to vehicle control; for clinical score: day 9
Description: Psoriasis in Balb/c mice is induced by daily application of topical Imiquimod for 8 days. Animal are treated with the test items (topical or systemically). On day 9 the skin phenotype is characterized using a clinical score system (0=normal mouse skin; 1=mild reddening; 2=erythema; 3=erythema, swelling; 4=erythema, swelling, scaling; 5=erythema, swelling, scaling, (bloody) lesions). Skin is analyzed histologically. Lymph nodes are analyzed by flow cytometry and RT-qPCR. mRNA expression in lesional skin is analyzed by RT-qPCR. Cytokine concentrations in the serum are assessed using the Luminex technology.

[9] = human, tissue homogenate, 1000 min, 160 μg/ml
Description: as §4

## CC(C)(C)[C@H](NC(=O)[C@@H]1CCCN1C(=O)[C@@H](N)CCCCN)C(=O)O [Example 9, H-(L)-Lys-(L)-Pro-(L)-t-butyl-Gly-OH] (H-Lys-Pro-[Tle]-OH)
[1]
  remaining at 5 h, 160 μg/ml: 58%

## N^α,N^α-dimethyl-(L)-Phe-(t)-Pro-Aib-OH [Example 17]
[2]
  concentration of anti-inflammatory cytokine IL-10 in the supernatants: increased
  concentrations of pro-inflammatory cytokines IFN-γ and IL-17 in the supernatants: reduced
[3]
  expression of pro-inflammatory cytokines IL-1β, IL-6 and TNF-α on mRNA level: reduced expression
[4]
  concentration of pro-inflammatory cytokine IFN-γ in the supernatants: reduced
[5]
  expression of pro-inflammatory cytokines IL-1β, IL-6 and TNF-α on mRNA level: reduced expression
[6]
  expression of pro-inflammatory cytokines IL-1β, IL-6 and TNF-α on mRNA level: reduced expression
[7]
  concentration of anti-inflammatory cytokine IL-10 in the supernatants: increased
  concentrations of pro-inflammatory cytokines IFN-γ and IL-17 in the supernatants: reduced
[8]
  concentrations of TNF-α and IL-17 in the serum: reduced
  epidermal thickness: reduced
  mRNA expression of IFN-γ and IL-36 in lesional skin: reduced
  clinical score: reduced

## N^α,N^α-dimethyl-(L)-Nle-(L)-Pro-Aib-OH [Example 16]
[2]
  concentration of anti-inflammatory cytokine IL-10 in the supernatants: increased
  concentrations of pro-inflammatory cytokines IFN-γ and IL-17 in the supernatants: reduced
[3]
  expression of pro-inflammatory cytokines IL-1β, IL-6 and TNF-α on mRNA level: reduced expression
[4]
  concentration of pro-inflammatory cytokine IFN-γ in the supernatants: reduced
[5]
  expression of pro-inflammatory cytokines IL-1β, IL-6 and TNF-α on mRNA level: reduced expression
[6]
  expression of pro-inflammatory cytokines IL-1β, IL-6 and TNF-α on mRNA level: reduced expression
[7]
  concentration of anti-inflammatory cytokine IL-10 in the supernatants: increased
  concentrations of pro-inflammatory cytokines IFN-γ and IL-17 in the supernatants: reduced
[8]
  concentrations of TNF-α and IL-17 in the serum: reduced
  epidermal thickness: reduced
  mRNA expression of IFN-γ and IL-36 in lesional skin: reduced
  clinical score: reduced

## CC(C)(NC(=O)[C@@H]1CCCN1C(=O)[C@@H](N)CCCCN)C(=O)O [Example 8, H-(L)-Lys-(L)-Pro-Aib-OH] (H-Lys-Pro-[Aib]-OH)
[1]
  remaining at 1000 min, 160 μg/ml: 40%
[9]
  % of the starting concentration: 47%

Reference: US10954269B2, “Anti-inflammatory tripeptides” (Dr. August Wolff Gmbh & Co. KG Arzneimittel, priority 2013, dated 2021)
